The text below walks through data of publication PMC10093836, “Stabilization of the Dimeric State of SARS-CoV-2 Main Protease by GC376 and Nirmatrelvir” (International Journal of Molecular Sciences, 2023).

Each structure is given as a SMILES string.

For experiment [1], the system named is cells. Also on record: method as in PMID 32841477. Particulars: literature values; cited from earlier work.
Experiment [2] concerns Mpro. Particulars: read-out: IC50 for Mpro; literature data; cited from earlier work.
For experiment [3], the target named is SARS-CoV-2 Mpro (Nsp5, 3CLpro) (Severe acute respiratory syndrome coronavirus 2, UniProt P0DTD1). Briefly: biochemical. It counts as binding. Particulars: for Binding to Mpro (MST), in words: no binding curve produced.
Experiment [4] addresses SARS-CoV-2 protease. Also on record: method as in PMID 34726479, PMID 35233052, PMID 34653812. Particulars: literature; read-out: Inhibition constant (Ki); cited from earlier work.

Consider `CCCCCCNC(=O)n1cc(F)c(=O)[nH]c1=O` [Carmofur], for which, in experiment [1], the EC50 was 24000 ± 3000 nM.

As to `CC(C)C[C@H](NC(=O)OCc1ccccc1)C(=O)N[C@@H](CC1CCNC1=O)C(O)S(=O)(=O)O` (stereo partly shown) [GC376], the IC50 in experiment [2] is 190 ± 40 nM.

Take `Cc1cccc(C)c1OCC(=O)N[C@@H](Cc1ccccc1)[C@@H](O)C[C@H](Cc1ccccc1)NC(=O)[C@H](C(C)C)N1CCCNC1=O` [Lopinavir]: in experiment [3], the Kd is above 200000 nM and the “Binding to Mpro (MST), in words” value is reported as “do not bind Mpro effectively”.

Regarding `CC(C)(C)[C@H](NC(=O)C(F)(F)F)C(=O)N1C[C@H]2[C@@H]([C@H]1C(=O)N[C@H](C#N)C[C@@H]1CCNC1=O)C2(C)C` [NMV, Nirmatrelvir], the Ki in experiment [4] is 3 nM.

Turning to `Cc1c(O)cccc1C(=O)N[C@@H](CSc1ccccc1)[C@H](O)CN1C[C@H]2CCCC[C@H]2C[C@H]1C(=O)NC(C)(C)C` [Nelfinavir], the “Binding to Mpro (MST), in words” value in experiment [3] is “do not bind Mpro effectively”.

For the compound `CC(C)c1nc(CN(C)C(=O)N[C@H](C(=O)N[C@@H](Cc2ccccc2)C[C@H](O)[C@H](Cc2ccccc2)NC(=O)OCc2cncs2)C(C)C)cs1` [RTV, ritonavir], the “Binding to Mpro (MST), in words” value in experiment [3] was “do not bind Mpro effectively”.

What is called EC50 is the concentration needed to bring the measured effect to its halfway point. One may read the IC50 as the concentration at which inhibition is half-maximal. By Kd is commonly meant the free concentration of one partner at which half of the binding sites on the other are occupied at equilibrium, for simple one-to-one binding. As usually defined, the Ki is a dissociation constant, usually derived from enzyme kinetics or from competition with a known ligand.
